Source: paper PMC5268383, “Inhibition of STAT3 by Anticancer Drug Bendamustine” (PLoS ONE, 2017)

Key:
[1] = system: cyclin D1, survivin and Bcl-2 mRNA in MDA-MB-468 cells; assay: RT-PCR of STAT3 target genes cyclin D1, survivin, Bcl-2; type: cell-based, human; conditions: MDA-MB-468, 50 or 100 μM, 8 h
Grb2 SH2 = target: T1, Grb2 SH2 (Homo sapiens, UniProt P62993); assay: AlphaScreen SH2 binding assay, Grb2
T1 construct: Avi-tag (N); 6His-tag (N)
Method: AlphaScreen assays were performed in a final reaction volume of 25 μL of the assay buffer, containing 10 mM HEPES-NaOH (pH 7.4), 50 mM NaCl, 1 mM EDTA (pH 8.0), 0.1% NP-40, and 10 ng/mL BSA in a 96-well microtiter plate at 25°C. The labeled Phospho-Tyr (pTyr) peptide probe was 5-carboxyfluorescein (FITC)-GpYLPQTV for STAT3, FITC-GpYDKPHVL for STAT1, and FITC-PSpYVNVQN for Grb2. A DMSO solution of BENDA was incubated with 50 nM of each SH2-containing protein for 15 min, 50 nM of the corresponding FITC-pTyr peptide was added, and the mixture was incubated for 90 min. Streptavidin-coated donor beads and anti-FITC acceptor beads were added and incubated for 90 min before the signals were measured with an Envision Xcite plate reader (PerkinElmer Life Sciences, Waltham, MA, USA).

[2] = system: c-Myc protein in MDA-MB-468 cells; assay: Western blotting of c-Myc protein; type: cell-based, human; conditions: MDA-MB-468, 50 or 100 μM, 24 h
Method: Cells were treated with PhosphoSafe Extraction Reagent. Total proteins (40 μg) were subjected to SDS-PAGE and then transferred onto a nitrocellulose membrane. Membranes were blocked in 5% skim milk in TBS/0.1% Tween 20, incubated with primary antibodies diluted at 1:1000 in 1.5% skim milk in TBS (pH 7.4)/0.1% Tween 20 overnight at 4°C, and then incubated with HRP-conjugated secondary antibodies diluted at 1:5000 in TBS (pH 7.4)/0.1% Tween 20 for 1 h at room temperature. Immunoblots were developed with a chemiluminescent substrate.

[3] = target: T2, STAT3-CFP / STAT3-YFP in HEK293 cells (Homo sapiens, UniProt P40763); assay: FRET assay of STAT3 dimerization; type: cell-based; conditions: HEK293, 10, 20 or 50 μM, pretreatment before 50 ng/mL IL-6 stimulation
T2 construct: expressed in transfected cells; host or cells: HEK293
T2 sequence (P40763 whole entry): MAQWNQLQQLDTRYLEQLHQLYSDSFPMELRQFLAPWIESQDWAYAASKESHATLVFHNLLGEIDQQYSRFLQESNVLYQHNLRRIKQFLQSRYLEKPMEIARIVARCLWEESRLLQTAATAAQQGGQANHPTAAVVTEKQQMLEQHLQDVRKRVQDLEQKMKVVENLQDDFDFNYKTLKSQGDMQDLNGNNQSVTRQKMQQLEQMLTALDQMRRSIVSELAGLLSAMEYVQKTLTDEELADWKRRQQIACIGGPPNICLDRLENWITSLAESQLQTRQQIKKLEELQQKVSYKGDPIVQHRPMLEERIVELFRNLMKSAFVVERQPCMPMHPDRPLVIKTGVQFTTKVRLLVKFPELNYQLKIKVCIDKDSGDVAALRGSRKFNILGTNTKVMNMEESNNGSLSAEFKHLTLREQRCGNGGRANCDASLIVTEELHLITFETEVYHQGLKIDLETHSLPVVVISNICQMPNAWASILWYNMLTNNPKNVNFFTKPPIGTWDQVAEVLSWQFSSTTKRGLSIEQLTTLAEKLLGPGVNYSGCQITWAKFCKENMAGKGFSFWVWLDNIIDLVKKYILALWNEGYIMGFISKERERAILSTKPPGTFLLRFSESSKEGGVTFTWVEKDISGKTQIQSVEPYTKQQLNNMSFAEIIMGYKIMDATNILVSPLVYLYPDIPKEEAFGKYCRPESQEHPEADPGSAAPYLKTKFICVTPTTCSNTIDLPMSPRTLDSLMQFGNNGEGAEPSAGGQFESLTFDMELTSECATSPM
Method: The expression vectors for the fusion proteins STAT3-CFP and STAT3-YFP were prepared by the addition of STAT3 cDNA to pAmCyan1-N1 and pZsyellow1-N1. The vector mixture (1:1) was transfected into HEK293 cells with Lipofectamine 2000. The cells were cultured with 2% FBS DMEM for 48 h in a 96-well microtiter plate, treated with 0, 10, 20, or 50 μM BENDA or HP2 in a final DMSO concentration of 0.2% for 24 h, and then stimulated with 50 ng/mL IL-6 for a further 1 h. Fluorescence signals were measured (SpectraMax M5SK). The signals measured by FRET (excitation/emission: 436/528 nm) were corrected for crosstalk signals from cyan (excitation/emission: 436/488 nm) and yellow (excitation/emission: 517/528 nm).

[4] = target: T3, nuclear STAT3 of MDA-MB-468 cells (Homo sapiens, UniProt P40763); assay: STAT3 DNA binding assay (TransAM ELISA); type: cell-based; conditions: MDA-MB-468, 24 h; BENDA 25, 50, 100 μM, HP2 100 μM
T3 construct: endogenous in cells; host or cells: MDA-MB-468
T3 sequence (P40763 2-770 limits assumed): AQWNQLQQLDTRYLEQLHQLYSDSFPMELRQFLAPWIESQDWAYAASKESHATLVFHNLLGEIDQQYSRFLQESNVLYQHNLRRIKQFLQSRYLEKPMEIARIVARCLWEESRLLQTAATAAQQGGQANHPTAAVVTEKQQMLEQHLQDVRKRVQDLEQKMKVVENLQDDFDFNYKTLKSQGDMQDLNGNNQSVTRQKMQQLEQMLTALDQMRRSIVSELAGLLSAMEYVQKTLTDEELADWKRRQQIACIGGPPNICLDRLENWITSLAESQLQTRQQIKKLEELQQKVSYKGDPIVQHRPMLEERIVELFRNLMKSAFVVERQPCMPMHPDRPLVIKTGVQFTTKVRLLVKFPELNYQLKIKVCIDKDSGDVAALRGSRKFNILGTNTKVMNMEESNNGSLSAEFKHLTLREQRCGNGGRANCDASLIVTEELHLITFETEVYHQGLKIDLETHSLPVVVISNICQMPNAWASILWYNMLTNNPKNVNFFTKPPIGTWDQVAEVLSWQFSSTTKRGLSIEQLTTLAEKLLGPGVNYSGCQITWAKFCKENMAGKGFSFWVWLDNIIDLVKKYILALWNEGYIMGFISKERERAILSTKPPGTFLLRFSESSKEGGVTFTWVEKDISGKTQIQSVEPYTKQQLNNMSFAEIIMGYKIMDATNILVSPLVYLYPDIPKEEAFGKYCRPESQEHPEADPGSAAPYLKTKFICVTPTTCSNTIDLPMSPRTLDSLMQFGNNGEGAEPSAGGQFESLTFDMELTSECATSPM
Method: The DNA-binding activity of STAT3 was evaluated with a TransAM ELISA kit (Active Motif, Carlsbad, CA, USA). The assay and nuclear extract preparation were performed according to the manufacturer’s instructions. Heat-denatured nuclear extract was used as a negative control. The nuclear extract (20 μg) was added to each well of a 96-well microtiter plate coated with immobilized oligonucleotides containing the STAT3 consensus binding site and incubated at room temperature for 1 h. They were incubated with anti-STAT3 antibody for 1 h at room temperature, followed by HRP-conjugated antibody for 1 h at room temperature. The developing solution was added, the reaction was terminated by the addition of stop solution, and the absorbance was measured at 450 nm with a reference wavelength of 655 nm (SpectraMax M5SK, Molecular Devices, Sunnyvale, CA, USA).

[5] = target: T4, cellular STAT3 in MDA-MB-468 cells (Homo sapiens, UniProt P40763); assay: Pull-down assay using Bio-BENDA, anti-STAT3 immunoprecipitation; type: cell-based; conditions: 50 μM Bio-BENDA plus excess free drug, 4 h
T4 construct: endogenous in cells; host or cells: MDA-MB-468
T4 sequence (P40763 2-770 limits assumed): as above
Method: MDA-MB-468 cells were treated with biotinylated BENDA (Bio-BENDA) in the presence or absence of an excess amount of free drugs for 4 h and then lysed in PhosphoSafe™ Extraction Reagent (Merck, Darmstadt, Germany). Lysate (200 μL) was precleared with a mixture of Protein G Plus/Protein A Agarose Suspension (EMD Millipore, Billerica, MA, USA) for 1 h at 4°C and protein A and G agarose were removed by centrifugation at 13,000 rpm for 10 min. The lysate (200 μL) was immunoprecipitated with STAT3 antibody (1 μL) overnight at 4°C on a shaker and the immunocomplex was captured by the addition of a Protein G Plus/Protein A Agarose Suspension (30 μL) slurry for 1 h at 4°C. Samples were washed five times with lysis buffer and then boiled four times in SDS-PAGE sample buffer and run on an SDS-PAGE gel. The protein was transferred to a nitrocellulose membrane. The membranes were blocked in 5% skim milk in TBS/0.1% Tween 20. They were then incubated with streptavidin-HRP diluted at 1:2000 in 1.5% skim milk in TBS (pH7.4)/0.1% Tween 20 overnight at 4°C. Immunoblots were developed by using a chemiluminescent substrate.

T1 sequence (P62993 whole entry): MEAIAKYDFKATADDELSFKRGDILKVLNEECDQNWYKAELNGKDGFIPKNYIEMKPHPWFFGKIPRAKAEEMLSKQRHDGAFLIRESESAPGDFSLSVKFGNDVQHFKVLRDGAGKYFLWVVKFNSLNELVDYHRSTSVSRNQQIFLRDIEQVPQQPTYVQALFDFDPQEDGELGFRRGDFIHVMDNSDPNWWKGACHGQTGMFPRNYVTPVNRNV

## Cn1c(CCCC(=O)O)nc2cc(N(CCCl)CCCl)ccc21 [BENDA, 4-{5-[bis(2-chloroethyl)amino]-1-methyl-2-benzimidazolyl} butyric acid]
[1]
  Bcl-2 mRNA expression: dose-dependent decrease
  cyclin D1 mRNA expression: dose-dependent decrease
  survivin mRNA expression: dose-dependent decrease
Grb2 SH2
  IC50: > 100 µM
[2]
  Expression of c-Myc protein: inhibited the expression of c-Myc protein
[3]
  Effect on FRET signals (STAT3 dimerization): reduced the FRET signals
[4]
  Inhibition of STAT3 binding to oligonucleotides containing STAT3 consensus binding site: inhibited
[5]
  Competition of Bio-BENDA STAT3 band intensity by excess free drug: competitively reduced
